Values of other authors in US20200138985A1, “KIT FOR LABELING A PROSTATE-SPECIFIC MEMBRANE ANTIGEN LIGAND WITH A RADIOACTIVE ISOTOPE” (Isotopia Molecular Imaging Ltd., priority 2015, published 2020).

Target: T1, PSMA (Homo sapiens, UniProt Q04609)
T1 construct: In cell research with PSMA-positive androgen-insensitive LNCaP-C4-2 cells; endogenous in cells; host or cells: LNCaP-C4-2 cells
Details: PSMA-positive androgen-insensitive LNCaP-C4-2 cells

T1 sequence (Q04609 whole entry): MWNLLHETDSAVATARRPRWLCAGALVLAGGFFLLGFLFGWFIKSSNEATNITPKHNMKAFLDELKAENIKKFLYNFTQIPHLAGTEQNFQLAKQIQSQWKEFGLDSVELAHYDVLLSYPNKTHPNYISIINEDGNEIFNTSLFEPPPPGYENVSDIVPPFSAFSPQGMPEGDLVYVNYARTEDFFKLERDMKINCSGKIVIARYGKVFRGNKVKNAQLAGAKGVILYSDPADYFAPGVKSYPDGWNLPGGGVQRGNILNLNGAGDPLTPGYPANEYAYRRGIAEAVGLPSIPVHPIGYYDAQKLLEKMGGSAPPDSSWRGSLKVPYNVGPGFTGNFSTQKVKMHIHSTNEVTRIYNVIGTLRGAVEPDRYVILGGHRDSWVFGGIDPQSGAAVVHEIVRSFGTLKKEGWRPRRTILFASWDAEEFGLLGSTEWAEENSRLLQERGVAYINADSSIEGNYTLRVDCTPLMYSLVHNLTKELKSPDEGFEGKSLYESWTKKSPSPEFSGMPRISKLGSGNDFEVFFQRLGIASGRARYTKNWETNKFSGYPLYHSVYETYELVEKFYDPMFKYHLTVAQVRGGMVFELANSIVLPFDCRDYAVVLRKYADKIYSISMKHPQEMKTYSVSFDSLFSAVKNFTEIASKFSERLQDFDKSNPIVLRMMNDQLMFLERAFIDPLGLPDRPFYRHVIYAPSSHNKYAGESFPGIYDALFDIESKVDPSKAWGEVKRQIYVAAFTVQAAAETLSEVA

| Substance | Kd [nM] |
| --- | --- |
| (5S,8S,22S,26S)-1-amino-5,8-dibenzyl-4,7,10,19,24-pentaoxo-3,6,9,18,23,25-hexaazaoctacosane-22,26,28-tricarboxylic acid (DUPA-Pep), conjugated with 1,4,7,10-tetraazacyclododecane-N,N,N′,N″-tetraacetic acid (DOTA) | 21.6 ± 0.4 |
| cyclohexyl-diethylene triamine pentaacetic acid-(5S,8S,22S,26S)-1-amino-5,8-dibenzyl-4,7,10,19,24-pentaoxo-3,6,9,18,23,25-hexaazaoctacosane-22,26,28- tricarboxylic acid [CHX-A″-DTPA-DUPA-Pep] | ≤ 14.7 |
